According to US12495798B2, “Nicotinamide compound and herbicidal composition comprising compound” (KOREA RESEARCH INSTITUTE OF CHEMICAL TECHNOLOGY, priority 2019, dated 2025):

Columns and labels:
Format in all cases: in vivo
barnyard grass [1] = experiment: Herbicidal activity test against upland field weeds (soil treatment test); design: key to Soil treatment herbicidal activity, barnyard grass: 0 (no control); 100 (complete control); settings: scale 0 (no control) to 100 (complete control)
Summary of the method: (§1)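 Pre-emergence soil surface spray, day after sowing, into sandy loam pots with fertilizer; compounds at 50 or 75 g a.i./ha in 50% acetone, 0.1% Tween-20. Greenhouse at 30±5 °C, 14/10 h light/dark; visual control rated 0–100 against untreated after 14 days (21 if needed).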

black nightshade [2] = experiment: Herbicidal activity test against upland field weeds (foliar treatment test); design: key to Foliar treatment herbicidal activity, black nightshade: 0 (no control); 100 (complete control); settings: scale 0-100; for pest or weed control at 50 g/ha: Solanum nigrum
Summary of the method: (§2)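 Greenhouse-grown plants (30±5 °C, 14/10 h light/dark) foliar hand-sprayed with compound in 50% acetone, 0.1% Tween-20 at 50 or 75 g a.i./ha. Control visually scored 0 (none) to 100 (complete) versus untreated after 14 days, or 21 days if needed.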

sorghum [3] = experiment: Herbicidal activity test against upland field weeds (soil treatment test); design: key to Soil treatment herbicidal activity, Sorghum: 0 (no control); 100 (complete control); settings: scale 0 (no control) to 100 (complete control); for Soil treatment herbicidal activity, Sorghum: 50 g ai/ha; for plant injury at 75 g/ha: Sorghum, 75 g ai/ha
Summary of the method: as §1

black nightshade [4] = experiment: as above; design: key to Soil treatment herbicidal activity, black nightshade: 0 (no control); 100 (complete control); settings: scale 0 (no control) to 100 (complete control); for pest or weed control at 50 g/ha: Solanum nigrum
Summary of the method: as §1

velvetleaf [5] = experiment: Herbicidal activity test against upland field weeds (foliar treatment test); design: key to Foliar treatment herbicidal activity, velvet leaf: 0 (no control); 100 (complete control); settings: for pest or weed control at 50 g/ha: 50 g ai/ha
Summary of the method: as §2

fall panicum [6] = experiment: as above; design: key to Foliar treatment herbicidal activity, Fall panicum: 0 (no control); 100 (complete control); settings: scale 0-100; for pest or weed control at 75 g/ha: 75 g ai/ha
Summary of the method: as §2

quack grass [7] = experiment: Herbicidal activity test against upland field weeds (soil treatment test); design: key to Soil treatment herbicidal activity, quack grass: 0 (no control); 100 (complete control); settings: scale 0 (no control) to 100 (complete control)
Summary of the method: as §1

sorghum [8] = experiment: Herbicidal activity test against upland field weeds (foliar treatment test); design: key to Foliar treatment herbicidal activity, Sorghum: 0 (no control); 100 (complete control); settings: scale 0-100; for Foliar treatment herbicidal activity, Sorghum: 50 g ai/ha; for plant injury at 75 g/ha: Sorghum, 75 g ai/ha
Summary of the method: as §2

crabgrass [9] = experiment: as above; design: key to Foliar treatment herbicidal activity, Crabgrass: 0 (no control); 100 (complete control); settings: scale 0-100; for pest or weed control at 75 g/ha: 75 g ai/ha
Summary of the method: as §2

velvetleaf [10] = experiment: Herbicidal activity test against upland field weeds (soil treatment test); design: key to Soil treatment herbicidal activity, velvet leaf: 0 (no control); 100 (complete control); settings: scale 0 (no control) to 100 (complete control); for pest or weed control at 50 g/ha: Abutilon theophrasti, 50 g ai/ha, read-out: Soil treatment herbicidal activity, velvet leaf; for Soil treatment herbicidal activity, velvet leaf: 75 g ai/ha
Summary of the method: as §1

fall panicum [11] = experiment: as above; design: key to Soil treatment herbicidal activity, Fall panicum: 0 (no control); 100 (complete control); settings: scale 0 (no control) to 100 (complete control)
Summary of the method: as §1

quack grass [12] = experiment: Herbicidal activity test against upland field weeds (foliar treatment test); design: key to Foliar treatment herbicidal activity, quack grass: 0 (no control); 100 (complete control); settings: scale 0-100
Summary of the method: as §2

indian jointvetch [13] = experiment: Herbicidal activity test against upland field weeds (soil treatment test); design: key to Soil treatment herbicidal activity, Indian jointvetch: 0 (no control); 100 (complete control); settings: scale 0 (no control) to 100 (complete control)
Summary of the method: as §1

crabgrass [14] = experiment: as above; design: key to Soil treatment herbicidal activity, Crabgrass: 0 (no control); 100 (complete control); settings: 50 g ai/ha, scale 0 (no control) to 100 (complete control)
Summary of the method: as §1

cocklebur [15] = experiment: Herbicidal activity test against upland field weeds (foliar treatment test); design: key to Foliar treatment herbicidal activity, Cocklebur: 0 (no control); 100 (complete control); settings: scale 0-100; for pest or weed control at 75 g/ha: 75 g ai/ha
Summary of the method: as §2

cocklebur [16] = experiment: Herbicidal activity test against upland field weeds (soil treatment test); design: key to Soil treatment herbicidal activity, Cocklebur: 0 (no control); 100 (complete control); settings: scale 0 (no control) to 100 (complete control)
Method: Experimental Example 2: Herbicidal Activity Test Against Upland Field Weeds (Soil Treatment Test) Soil treatment was performed as follows: After filling a square plastic pot having a surface area of 350 cm^2 with sandy loam mixed with 1 g per pot (350 cm^2) of horticultural mixed fertilizer (N:P:K=11:10:11), seeds (10˜15 grains) or rootstocks (2 pieces) of 5 kinds of grassy weeds of sorghum, barnyard grass, quack grass, crabgrass, fall panicum, and 5 kinds of broadleaf weeds of black nightshade, indian jointvetch, velvetleaf, cocklebur, bindweed, which had been stored in a low temperature (6° C.), were sown. The day after sowing, test compound solutions were made by diluting with a preparation solution (including 50% acetone, 0.1% Tween-20) so that the final treatment amount of the test compounds was 50 or 75 g a.i./ha. The prepared test compound solution was used for treating soil surface by hand-spraying 14 mL per pot in a fume hood. After the treatment, it was managed under the same greenhouse conditions (average temperature 30±5° C., light/dark=14/10 hours), and after 14 days (after 21 days if necessary), the external symptoms and efficacy were investigated according to the scale of 0 (no control) to 100 (complete control). The results of Table 8 were obtained by evaluating weed control value to the untreated control by conducting visual assessment.

barnyard grass [17] = experiment: Herbicidal activity test against upland field weeds (foliar treatment test); design: key to Foliar treatment herbicidal activity, barnyard grass: 0 (no control); 100 (complete control); settings: scale 0-100; for Foliar treatment herbicidal activity, barnyard grass: 50 g ai/ha; for pest or weed control at 75 g/ha: Echinochloa crus-galli, 75 g ai/ha
Summary of the method: as §2

bindweed [18] = experiment: Herbicidal activity test against upland field weeds (soil treatment test); design: key to Soil treatment herbicidal activity, Bindweed: 0 (no control); 100 (complete control); settings: scale 0 (no control) to 100 (complete control); for pest or weed control at 75 g/ha: 75 g ai/ha
Summary of the method: as §1

bindweed [19] = experiment: Herbicidal activity test against upland field weeds (foliar treatment test); design: key to Foliar treatment herbicidal activity, Bindweed: 0 (no control); 100 (complete control); settings: scale 0-100; for pest or weed control at 75 g/ha: 75 g ai/ha
Summary of the method: as §2

indian jointvetch [20] = experiment: as above; design: key to Foliar treatment herbicidal activity, Indian jointvetch: 0 (no control); 100 (complete control); settings: scale 0-100; for Foliar treatment herbicidal activity, Indian jointvetch: 50 g ai/ha; for pest or weed control at 75 g/ha: 75 g ai/ha
Summary of the method: as §2

[21] = Abutilon theophrasti, scale 0-100, read-out: Foliar treatment herbicidal activity, velvet leaf
[22] = Panicum dichotomiflorum, 50 g ai/ha
[23] = Xanthium strumarium, 50 g ai/ha

Compound	Soil treatment herbicidal activity, barnyard grass (barnyard grass [1]; 50 g ai/ha)	Soil treatment herbicidal activity, Sorghum (sorghum [3])	pest or weed control at 50 g/ha (velvetleaf [5]; [21])	Soil treatment herbicidal activity, quack grass (quack grass [7]; 50 g ai/ha)	Foliar treatment herbicidal activity, Sorghum (sorghum [8])	pest or weed control at 50 g/ha (velvetleaf [10])	Foliar treatment herbicidal activity, quack grass (quack grass [12]; 50 g ai/ha)	Soil treatment herbicidal activity, Indian jointvetch (indian jointvetch [13]; 50 g ai/ha)	Foliar treatment herbicidal activity, barnyard grass (barnyard grass [17])	pest or weed control at 50 g/ha (bindweed [18]; 50 g ai/ha)	pest or weed control at 50 g/ha (bindweed [19]; 50 g ai/ha)	Foliar treatment herbicidal activity, Indian jointvetch (indian jointvetch [20])	pest or weed control at 50 g/ha (black nightshade [2]; 50 g ai/ha)	pest or weed control at 50 g/ha (black nightshade [4]; 50 g ai/ha)	Foliar treatment herbicidal activity, Fall panicum (fall panicum [6]; 50 g ai/ha)	Foliar treatment herbicidal activity, Crabgrass (crabgrass [9]; 50 g ai/ha)	Soil treatment herbicidal activity, Fall panicum (fall panicum [11]; 50 g ai/ha)	Soil treatment herbicidal activity, Crabgrass (crabgrass [14])	Foliar treatment herbicidal activity, Cocklebur (cocklebur [15]; 50 g ai/ha)	Soil treatment herbicidal activity, Cocklebur (cocklebur [16]; 50 g ai/ha)	also measured
Cc1cc(C(=O)Nc2nnnn2C)c(OCc2nnnn2C)nc1C(F)(F)F [Compound No. 1-17, 5-methyl-N-(1-methyl-1H-tetrazol-5-yl)-2-((1-methyl-1H-tetrazol-5-yl)methoxy)-6-(trifluoromethyl)nicotinamide]	0	0	30%	0	0	30%	0	0	0	20%	20%	0									Foliar treatment herbicidal activity, black nightshade (black nightshade [2]; 50 g ai/ha): 100; Soil treatment herbicidal activity, black nightshade (black nightshade [4]; 50 g ai/ha): 100; pest or weed control at 50 g/ha (fall panicum [6]; [22]): 20%; pest or weed control at 50 g/ha (crabgrass [9]; Digitaria sanguinalis, 50 g ai/ha): 20%; pest or weed control at 50 g/ha (fall panicum [11]; [22]): 20%; pest or weed control at 50 g/ha (crabgrass [14]; Digitaria sanguinalis): 20%; pest or weed control at 50 g/ha (cocklebur [15]; [23]): 40%; pest or weed control at 50 g/ha (cocklebur [16]; [23]): 40%
C=Cc1cc(C(=O)Nc2nnnn2C)c(OCc2nnnn2C)nc1C(F)(F)F [Compound No. 1-18, N-(1-methyl-1H-tetrazol-5-yl)-2-((1-methyl-1H-tetrazol-5-yl)methoxy)-6-(trifluoromethyl)-5-vinylnicotinamide]	0	0	20%	0	0	20%	0	0	0	20%	20%	0	80%	80%	0	0	0	0	0	0	
CCc1cc(C(=O)Nc2nnnn2C)c(OCc2nnnn2C)nc1C(F)(F)F [Compound No. 1-19, 5-ethyl-N-(1-methyl-1H-tetrazol-5-yl)-2-((1-methyl-1H-tetrazol-5-yl)methoxy)-6-(trifluoromethyl)nicotinamide]	0	0	20%	0	0	20%	0	0	0			0	90%	98%	0	0	0	0	0	0	Soil treatment herbicidal activity, Bindweed (bindweed [18]; 50 g ai/ha): 0; Foliar treatment herbicidal activity, Bindweed (bindweed [19]; 50 g ai/ha): 0
CCN(Cc1nnn(C)n1)c1nc(C(F)(F)F)ccc1C(=O)Nc1nnnn1C [Compound No. 2-27, 2-(ethyl((2-methyl-2H-tetrazol-5-yl)methyl)amino)-N-(1-methyl-1H-tetrazol-5-yl)-6-(trifluoromethyl)nicotinamide]																					Soil treatment herbicidal activity, barnyard grass (barnyard grass [1]; 75 g ai/ha): 100; Foliar treatment herbicidal activity, black nightshade (black nightshade [2]; 75 g ai/ha): 100; plant injury at 75 g/ha (sorghum [3]): 50%; Soil treatment herbicidal activity, black nightshade (black nightshade [4]; 75 g ai/ha): 100; Foliar treatment herbicidal activity, velvet leaf (velvetleaf [5]; 75 g ai/ha, scale 0-100): 100; pest or weed control at 75 g/ha (fall panicum [6]; Panicum dichotomiflorum): 70%; Soil treatment herbicidal activity, quack grass (quack grass [7]; 75 g ai/ha): 0; plant injury at 75 g/ha (sorghum [8]): 40%; pest or weed control at 75 g/ha (crabgrass [9]; Digitaria sanguinalis): 20%; Soil treatment herbicidal activity, velvet leaf (velvetleaf [10]): 100; Soil treatment herbicidal activity, Fall panicum (fall panicum [11]; 75 g ai/ha): 100; Foliar treatment herbicidal activity, quack grass (quack grass [12]; 75 g ai/ha): 0; Soil treatment herbicidal activity, Indian jointvetch (indian jointvetch [13]; 75 g ai/ha): 100; pest or weed control at 75 g/ha (cocklebur [15]; Xanthium strumarium): 98%; Soil treatment herbicidal activity, Cocklebur (cocklebur [16]; 75 g ai/ha): 100; pest or weed control at 75 g/ha (barnyard grass [17]): 80%; pest or weed control at 75 g/ha (bindweed [18]): 98%; pest or weed control at 75 g/ha (bindweed [19]): 40%; pest or weed control at 75 g/ha (indian jointvetch [20]): 70%
CN(Cc1ncn(C)n1)c1nc(C(F)(F)F)ccc1C(=O)Nc1nnnn1C [Compound No. 2-35, 2-(methyl((1-methyl-1H-1,2,4-triazol-3-yl)methyl)amino)-N-(1-methyl-1H-tetrazol-5-yl)-6-(trifluoromethyl)nicotinamide]																					Soil treatment herbicidal activity, barnyard grass (barnyard grass [1]; 75 g ai/ha): 100; Foliar treatment herbicidal activity, black nightshade (black nightshade [2]; 75 g ai/ha): 100; plant injury at 75 g/ha (sorghum [3]): 90%; Soil treatment herbicidal activity, black nightshade (black nightshade [4]; 75 g ai/ha): 100; pest or weed control at 75 g/ha (velvetleaf [5]; Abutilon theophrasti, 75 g ai/ha, scale 0-100, read-out: Foliar treatment herbicidal activity, velvet leaf): 90%; pest or weed control at 75 g/ha (fall panicum [6]; Panicum dichotomiflorum): 80%; Soil treatment herbicidal activity, quack grass (quack grass [7]; 75 g ai/ha): 0; plant injury at 75 g/ha (sorghum [8]): 70%; pest or weed control at 75 g/ha (crabgrass [9]; Digitaria sanguinalis): 70%; Soil treatment herbicidal activity, velvet leaf (velvetleaf [10]): 100; Soil treatment herbicidal activity, Fall panicum (fall panicum [11]; 75 g ai/ha): 100; Foliar treatment herbicidal activity, quack grass (quack grass [12]; 75 g ai/ha): 0; Soil treatment herbicidal activity, Indian jointvetch (indian jointvetch [13]; 75 g ai/ha): 100; pest or weed control at 75 g/ha (cocklebur [15]; Xanthium strumarium): 90%; pest or weed control at 75 g/ha (cocklebur [16]; Xanthium strumarium, 75 g ai/ha): 95%; pest or weed control at 75 g/ha (barnyard grass [17]): 80%; pest or weed control at 75 g/ha (bindweed [18]): 70%; pest or weed control at 75 g/ha (bindweed [19]): 70%; pest or weed control at 75 g/ha (indian jointvetch [20]): 80%
